Results published in patent US8722723B2, “Aromatic amide derivative” (Research Foundation Itsuu Laboratory, priority 2008, dated 2014).

Tests used:
luciferase (Luc) = assay: Reporter assay: Hela cells transfected with human RORα1 expression vector and luciferase (Luc) reporter vector; Luc activity corrected with β-Gal activity; assay type: cell-based, firefly; design: key: β-Gal-corrected Luc activity; smaller = inhibition, larger = promotion; conditions: human RORα1 expression vector, rev-DR2/TK-Luc reporter, about 1 day, smaller number = inhibitory, larger = promoting
Protocol: The reporter assay was used, in which Hela cells transfected with each of a pcDNA3 vector incorporated with the human RORα1 so that the gene can be expressed in animal cells as an expression vector, and a pGL3 promoter vector of which SV40 promoter was replaced with TK promoter as a luciferase expression reporter vector were used.
The Hela cells were placed at a density of 2×10^4 cells/0.1 mL/well on a 96-well cell culture plate (FALCON) by using 10% FBS-DMEM. On the next day, the human RORα1 expression vector, the reporter vector incorporated with 3 copies of rev-DR2 sequences and the HSV thymidine kinase promoter at a position upstream from the luciferase (Luc) gene, and a β-galactosidase (β-Gal) expression vector for control were introduced into the cells by using a transfection reagent (Fugene6, Roche). On the next day, the medium was replaced with 5% FBS-DMEM containing a test compound diluted at a prescribed concentration, after about 1 day, the cell supernatant was removed, then the cells were lysed (Passive Lysis buffer, Promega), the Luc substrate (PicaGene, Toyo Ink) was added to a part of the lysed cells, and the activity of produced Luc was measured as luminescence intensity. Further, the β-Gal activity was measured as intensity of fluorescence generated when 4-methylumbelliferyl β-D-galactoside was added as a substrate, and the activity of Luc corrected for the transfection efficiency with the β-Gal activity was used as the index for evaluation. A smaller number indicates inhibitory action, and a larger number indicates promoting action.

Row | melting point [°C] | Structure (SMILES) | activity of Luc corrected for the transfection efficiency with the β-Gal activity (luciferase (Luc); test compound 0.01 μM) | activity of Luc corrected for the transfection efficiency with the β-Gal activity (luciferase (Luc); test compound 0.1 μM) | activity of Luc corrected for the transfection efficiency with the β-Gal activity (luciferase (Luc); test compound 1 μM) | activity of Luc corrected for the transfection efficiency with the β-Gal activity (luciferase (Luc); test compound 10 μM)
1 | 206 to 208 | CN(C)c1ccc2c(c1)C(=O)N(c1ccc(OCC(=O)O)cc1)C2 [Compound 28, [4-(6-dimethylamino-1-oxo-1,3-dihydro-isoindol-2-yl)-phenoxy]-acetic acid] | 1.1 | 0.8 | 0.2 | 0.1
2 | 172 to 173 | O=C(O)CCCc1ccc(N2Cc3ccc(F)cc3C2=O)cc1 [Compound 29, 4-[4-(6-fluoro-1-oxo-1,3-dihydro-isoindol-2-yl)-phenyl]-butyric acid] | 0.5 | 0.2 | 0.0 | 0.0
3 | 152 to 153 | Cc1ccc([N+](=O)[O-])c(C(=O)Nc2ccc(CCCC(=O)O)cc2)c1 [Compound 40, 4-[4-(5-methyl-2-nitro-benzoylamino)-phenyl]-butyric acid] | 0.8 | 0.9 | 0.8 | 0.8
